Data set [1] can be described thus: Thermal stability of massatide A. Here is the method: Thermal stability of massatide A
A solution of Massatide A (3.2 mg/mL) was prepared in 1.5 mL Eppendorf tube. These
tubes were then incubated at 50 °C and 70 °C in a dry bath for 72 hours. After incubation,
(§1) 1 μ L samples were taken and diluted with water for UPLC -LRMS analysis. […]

Data set [2] has as its system MRSA ATCC33591. As to the kind of experiment: microbe, parasite or virus in culture. It is filed as cell-based, Staphylococcus aureus. Particulars: ATCC33591, 20 h. The procedure:
(§2) For MIC determination, Staphylococcus aureus ATCC25923, Bacillus subtilis 168, Micrococcus luteus DSM1790, Enterococcus faecalis OG1RF, Enterococcus faecium MCC2763, Escherichia coli DH5α and Pseudomonas aeruginosa PAO1 were used as indicator strains. Nisin and vancomycin were used as positive controls. A dilution series of massatide A, massatide B, vancomycin (16, 8, 4, 2, 1, 0.5, 0.25, 0.125, 0.0625, 0.0313 μg/mL) and sistertide A1, kebanetide A1, kebanetide A2, nisin (64, 32, 16, 8, 4, 2, 1, 0.5, 0.25, 0.125 μg/mL) were prepared in 96-well plate from 1–10th column. The indicator strains were added to the compound-containing well. The indicator strain culture with no antibiotics was prepared in the 11th column. The 12th column was filled with 200 μL empty MHB medium. The 96-well plate was incubated at 37 °C for 20 h (30 °C for M. luteus and B. subtilis). The OD600 was detected on MULTISKAN Sky (Thermo Scientific) and MIC values were determined. The MIC values of clinical isolates were determined by Sichuan Primed Shines Bio-tech Co., Ltd. (China) following similar protocol. Levofloxacin was used as a positive control.

The subject of data set [3] is VMSA ATCC700788. As to the kind of experiment: microbe, parasite or virus in culture. In kind it is cell-based, Staphylococcus aureus. To be noted: ATCC700788, 20 h. The procedure:
as §2

Data set [4] relates to LRSA 20-1. As to the kind of experiment: microbe, parasite or virus in culture. In kind it is cell-based, Staphylococcus aureus. Particulars: 20 h. Here is the method: as §2
The test system of data set [5] is VMSA ATCC700699. Description: microbe, parasite or virus in culture. In kind it is cell-based, Staphylococcus aureus. Particulars: ATCC700699, 20 h. Here is the method: as §2
The test system of data set [6] is MRSA ATCC43300. Description: microbe, parasite or virus in culture. It is filed as cell-based, Staphylococcus aureus. Particulars: ATCC43300, 20 h. Here is the method: as §2
Data set [7] deals with chymotrypsin. Particulars: 32 μg/mL in H2O, protease 100:1 (w:w), 37 °C, 4 h, 8 h and 12 h, UPLC-LRMS. Here is the method:
(§3) Protease stability of massatide A
We selected TEV protease, Endoproteinase AspN, Endoproteinase GluC, trypsin, and chymotrypsin to evaluate the stability of massatide A. The protease digestion assay was conducted as follows: (i) Stock solution of massatide A (3.2 mg/mL in DMSO) was diluted in H2O with final concentration of 32 μg/mL, (ii) each protease was added with 100:1 (w:w) ratio and incubated under corresponding temperature, i.e., 37 °C for TEV protease, trypsin, and chymotrypsin and 30 °C for Endoproteinase AspN and […]
Endoproteinase GluC. […]
as §1

For data set [8] the following is noted: 300 μl of water added to 0.9 mg solid; visual, not quantitative.
Data set [9] relates to VREfa ATCC51575. As to the kind of experiment: microbe, parasite or virus in culture. In kind it is cell-based, Enterococcus faecalis. To be noted: ATCC51575, 20 h. The procedure:
as §2

In data set [10] the test system is LREfa 20-1. As to the kind of experiment: microbe, parasite or virus in culture. Particulars: 20 h. It is filed as cell-based, Enterococcus faecalis. Here is the method:
as §2

Data set [11] can be described thus: Mammalian cytotoxicity, CCK-8 assay. It is filed as cell-based. Particulars: human. The procedure: Bioactivity assay of the crude extract
as §3
Thermal stability of massatide A […]
and 1% penicillin -streptomycin. […]
and CO 2-controllable incubator with 5% CO 2. All the cell experiments were performed […]
Cell viability was determined by the CCK -8 assay. HeLa and Hek -293T cells were […]
µg/ml. At the end of the fixed incubation period (24 h), cells were washed with PBS to remove excess compound. We added 100 µl fresh medium and 10 µl CCK-8 reagent.
After 2 h incubation at 37°C, absorbance at 450 nm was recorded using a microplate reader. All experiments were performed in triplicate (n=3 independent experiments).
Growth kinetics of S. aureus
Massatide A or B was prepared in a 96-well plate at the concentration of 8×MIC, 4×MIC, 2×MIC, 1×MIC and 0.5×MIC , respectively. The MHB medium with no compound was used as a control. Then, the overnight culture of S. aureus ATCC 25923 cells was added to the medium at 1:1,000. The plate was incubated with shaking in SpectraMax iD3 (MOLECULAR DEVICES) at 30 ℃. OD600 was measured every 30 min for 36 hours. To analyze the lysis, 1mL of S. aureus ATCC 25923 culture (OD600 1.0) was treated with massatide A or vancomycin (10×MIC) for 24h. An untreated sample was used as a negative control.
Time-dependent killing assay
An overnight culture of S. aureus ATCC 25923 cells was diluted at 1:10,000 in MHB medium and incubated at 37 ℃, 200 rpm for 2 hours to reach the early exponential.
Then, massatide A or vancomycin was added to the culture at the concentration of 10×MIC. Bacteria were still cultivated at 37 ℃, 200 rpm. Culture with no antibiotics was used as a negative control. 10 μL aliquots were removed at intervals, centrifuged, and resuspended in 1 ml PBS. Serially diluted (10-fold) suspensions were plated on MHB agar and incubated at 37 ℃ overnight for counting of colony-forming units.
Experiments were performed in triplicate.
Sequential culturing of S. aureus ATCC 25923 was performed in the presence of a subinhibitory concentration of massatide A to observe whether the resistance developed. […]
For orientation: Tetrazolium dyes change colour on reduction, which living cells bring about.

≈ marks a conversion by molar mass, not a printed value.

Usually IC50 stands for the concentration at which inhibition is half-maximal. Lower therefore signals greater potency. For `C/C=C1\NC(=O)C(N(C)C)C(C)SC[C@@H](C(=O)N[C@H](CC)C(=O)N[C@H](C(=O)N[C@@H](C)C(=O)N[C@H](C)C(=O)N[C@@H](Cc2ccccc2)C(=O)N[C@@H](C)C(=O)NC2C(=O)NCC(=O)N[C@@H](Cc3ccc(O)cc3)C(=O)N[C@@H](Cc3ccccc3)C(=O)N[C@H](C)C(=O)N/C=C\SC2C)C(C)C)NC(=O)[C@@H]2CCCN2C(=O)[C@H](C(C)C)NC1=O` (stereo partly shown) [Massatide A (1), massatide A], in data set [1] (3.2 mg/mL, 50 °C and 70 °C, dry bath, 72 hours, UPLC-LRMS), the “stability under high temperatures” value is reported as “highly stable”. Moreover, the “changes in retention time or m/z after incubation” value in data set [1] (72 h incubation under 70 ℃, 3.2 mg/mL, UPLC-LRMS) was “No changes”. Moreover, the “changes in bioactivity after incubation” value in data set [1] (time-course activity analysis, incubation at 50 ℃ and 70 ℃ up to 72 h) is recorded as “no obvious changes”. The MIC in data set [2] was found to be 1 µg/mL (≈ 0.612 µM); in data set [3], 4 µg/mL (≈ 2.45 µM); in [4], 0.25 µg/mL (≈ 0.153 µM); in [5] it was 4 µg/mL (≈ 2.45 µM); in data set [6] it was 0.25 µg/mL (≈ 0.153 µM); in data set [9], 4 µg/mL (≈ 2.45 µM). In [10], this molecule had an MIC of 4 µg/mL (≈ 2.45 µM). Moreover, the protease stability result in data set [7] was “resistant”. Moreover, the “water solubility (observation)” value in [8] is reported as “not fully dissolved”. Further, the IC50 at 24 h in data set [11] came to 136 µg/mL (≈ 83.4 µM).
